Source: patent US20260234139A1, “PGDH INHIBITORS AND METHODS OF MAKING AND USING” (Epirium Bio Inc., priority 2023, published 2026)

Target: T1, 15-PGDH/HPGD (Homo sapiens, UniProt P15428)
T1 construct: purchased R&D System 5660-DH
T1 sequence (P15428 1-266): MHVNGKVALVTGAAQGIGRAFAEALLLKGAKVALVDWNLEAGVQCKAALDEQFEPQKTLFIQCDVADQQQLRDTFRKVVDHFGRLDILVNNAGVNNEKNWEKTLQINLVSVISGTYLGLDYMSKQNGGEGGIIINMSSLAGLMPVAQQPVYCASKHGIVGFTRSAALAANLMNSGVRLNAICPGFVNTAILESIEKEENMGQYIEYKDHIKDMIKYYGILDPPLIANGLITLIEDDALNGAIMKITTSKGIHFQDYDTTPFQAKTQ
Assay: hPGDH inhibitor screening biochemical assay
Conditions: 10 nM enzyme, 15 μM Prostaglandin E2, 0.25 mM NAD, fluorescence ex/em 340/485 nm
Protocol: A hydroxyprostaglandin dehydrogenase inhibition screening biochemical assay can be performed to assess the synthesized inhibitors provided herein. Provided herein is an exemplary biochemical assay for hPGDH inhibitor screening.
The in vitro biochemical assay can be performed in white, 384 plates in total 20 μl reaction volume consisting of 10 nM of 15-PGDH/HPGD (R&D System #5660-DH), 15 μM Prostaglandin E2 (Sigma, Cat #P5640-10 MG) and 0.25 mM B-Nicotinamide adenine dinucleotide sodium salt (Sigma, Cat #N0632-5G) made in reaction buffer (50 mM Tris-HCl, pH 7.5, 0.01% Tween 20) at 10-point dose response curve for test/tool compounds. Briefly, 5 μl (4×) of compounds solution and 5 μl (final concentration, 10 nM) of enzyme solution is added to white 384 well plates and incubated for 10 mins at 37° C. 5 μl (4×) of Prostaglandin E2 and 5 μl (4×) of β-Nicotinamide adenine dinucleotide sodium salt is added to the wells and incubated for 10 mins at room temperature. Fluorescence is recorded at ex/em=340 nm/485 nm.

Compound	IC50
CC(O)(c1cnc2c(ccn2-c2cccc(-c3nnc[nH]3)c2)c1)C1CCCC1 (single isomer, unassigned) [Compound 11A]	100 to 1000 nM
CC(O)(c1cnc2c(ccn2-c2cccc(-c3nnc[nH]3)c2)c1)C1CCCC1 (single isomer, unassigned) [Compound 11B]	≥ 1000 nM
CC(C)OCC(O)c1cnc2c(cnn2-c2cccc(-c3nnc[nH]3)c2)c1 (single isomer, unassigned) [Compound 18A]	< 100 nM
CC(C)OCC(O)c1cnc2c(cnn2-c2cccc(-c3nnc[nH]3)c2)c1 (single isomer, unassigned) [Compound 18B]	< 100 nM
CCOC(C)(C)C(O)c1cnc2c(cnn2-c2cccc(-c3nnc[nH]3)c2)c1 (single isomer, unassigned) [Compound 34A]	< 100 nM
CCOC(C)(C)C(O)c1cnc2c(cnn2-c2cccc(-c3nnc[nH]3)c2)c1 (single isomer, unassigned) [Compound 34B]	100 to 1000 nM
O=C(O)c1ccc(-n2ncc3cc(C(O)C4CC(F)(F)C4)cnc32)cc1 (single isomer, unassigned) [Compound 45A]	< 100 nM
CC(C)C[C@@H](O)C(O)c1cnc2c(ccn2-c2cccc(-c3nnc[nH]3)c2)c1 (stereo in doubt) [Compound 3A, (1R,2R)-4-methyl-1-[1-[3-(4H-1,2,4-triazol-3-yl)phenyl]pyrrolo[2,3-b]pyridin-5-yl]pentane-1,2-diol]	< 100 nM
CC(C)C[C@H](O)C(O)c1cnc2c(ccn2-c2cccc(-c3nnc[nH]3)c2)c1 (stereo in doubt) [Compound 3B, (1S,2S)-4-methyl-1-[1-[3-(4H-1,2,4-triazol-3-yl)phenyl]pyrrolo[2,3-b]pyridin-5-yl]pentane-1,2-diol]	< 100 nM
O=C(O)c1ccc(-n2ncc3cc(C(O)C4CC(F)(F)C4)cnc32)cc1 (stereo in doubt) [Compound 45B, (S)-4-(5-((3,3-difluorocyclobutyl)(hydroxy)methyl)-1H-pyrazolo[3,4-b]pyridin-1-yl)benzoic acid]	< 100 nM
OC1(c2cnc3c(ccn3-c3cc(Cl)cc(-c4nnc[nH]4)c3)c2)CCCC1 [Compound 13]	100 to 1000 nM
CC(C)(O)c1cnc2c(ccn2-c2cc(Cl)cc(-c3nnc[nH]3)c2)c1 [Compound 14]	100 to 1000 nM
CC(C)(O)c1cnc2c(cnn2-c2cc(Cl)cc(-c3nnc[nH]3)c2)c1 [Compound 19, 2-[1-[3-chloro-5-(4H-1,2,4-triazol-3-yl)phenyl]pyrazolo[3,4-b]pyridin-5-yl]propan-2-ol]	≥ 1000 nM
CC(C)(C)OC[C@H](O)c1cnc2c(ccn2-c2cccc(-c3nnc[nH]3)c2)c1 [Compound 31A]	< 100 nM
CC(C)OC[C@H](O)c1cnc2c(cnn2-c2ccc(CCCC(=O)O)c(F)c2)c1 [Compound 77B]	< 100 nM
CC(C)OC[C@@H](O)c1cnc2c(cnn2-c2ccc(OCC(=O)O)cc2)c1 [Compound 78B]	< 100 nM
O[C@@H](COC1CCC1)c1cnc2c(cnn2-c2ccc(-c3nnn[nH]3)cc2)c1 [Compound 79B]	< 100 nM
O=C(O)CCc1ccc(-n2ncc3cc([C@H](O)COC4CC4)cnc32)cc1F [Compound 86B]	< 100 nM
O=C(O)c1ccc(-n2ncc3cc([C@@H](O)C4COC4)ccc32)cc1 [Compound 120B]	100 to 1000 nM

Test system: A549
Assay: A549 EC50 (cell assay, method not described)
Format: cell-based
Conditions: A549

Compound	EC50
CC(C)OCC(O)c1cnc2c(cnn2-c2cccc(-c3nnc[nH]3)c2)c1 (single isomer, unassigned) [Compound 18A]	< 100 nM
CCOC(C)(C)C(O)c1cnc2c(cnn2-c2cccc(-c3nnc[nH]3)c2)c1 (single isomer, unassigned) [Compound 34A]	< 100 nM
CCOC(C)(C)C(O)c1cnc2c(cnn2-c2cccc(-c3nnc[nH]3)c2)c1 (single isomer, unassigned) [Compound 34B]	≥ 1000 nM
CC(C)C[C@H](O)C(O)c1cnc2c(ccn2-c2cccc(-c3nnc[nH]3)c2)c1 (stereo in doubt) [Compound 3B, (1S,2S)-4-methyl-1-[1-[3-(4H-1,2,4-triazol-3-yl)phenyl]pyrrolo[2,3-b]pyridin-5-yl]pentane-1,2-diol]	< 100 nM

Same assay, conditions: Homo sapiens, A549, A549

Compound	EC50
CC(C)OCC(O)c1cnc2c(cnn2-c2cccc(-c3nnc[nH]3)c2)c1 (single isomer, unassigned) [Compound 18B]	100 to 1000 nM
O=C(O)c1ccc(-n2ncc3cc(C(O)C4CC(F)(F)C4)cnc32)cc1 (single isomer, unassigned) [Compound 45A]	100 to 1000 nM
CC(C)C[C@@H](O)C(O)c1cnc2c(ccn2-c2cccc(-c3nnc[nH]3)c2)c1 (stereo in doubt) [Compound 3A, (1R,2R)-4-methyl-1-[1-[3-(4H-1,2,4-triazol-3-yl)phenyl]pyrrolo[2,3-b]pyridin-5-yl]pentane-1,2-diol]	< 100 nM
OC(c1cnc2c(ccn2-c2cccc(-c3nnc[nH]3)c2)c1)C1CC(F)(F)C1 (stereo in doubt) [Compound 7A, (R)-(3,3-difluorocyclobutyl)-[1-[3-(4H-1,2,4-triazol-3-yl)phenyl]pyrrolo[2,3-b]pyridin-5-yl]methanol]	< 100 nM
OC(c1cnc2c(ccn2-c2cccc(-c3nnc[nH]3)c2)c1)C1CC(F)(F)C1 (stereo in doubt) [Compound 7B, (S)-(3,3-difluorocyclobutyl)-[1-[3-(4H-1,2,4-triazol-3-yl)phenyl]pyrrolo[2,3-b]pyridin-5-yl]methanol]	< 100 nM
O=C(O)c1ccc(-n2ncc3cc(C(O)C4CC(F)(F)C4)cnc32)cc1 (stereo in doubt) [Compound 45B, (S)-4-(5-((3,3-difluorocyclobutyl)(hydroxy)methyl)-1H-pyrazolo[3,4-b]pyridin-1-yl)benzoic acid]	< 100 nM
O[C@H](c1cnc2c(ccn2-c2cccc(-c3nnc[nH]3)c2)c1)C1CCCC1 [Compound 6A]	< 100 nM
O[C@@H](c1cnc2c(ccn2-c2cccc(-c3nnc[nH]3)c2)c1)C1CCCC1 [Compound 6B]	100 to 1000 nM
CCCCC(F)(F)[C@@H](O)c1cnc2c(ccn2-c2cccc(-c3nnc[nH]3)c2)c1 [Compound 8A]	< 100 nM
CCCCC(F)(F)[C@H](O)c1cnc2c(ccn2-c2cccc(-c3nnc[nH]3)c2)c1 [Compound 8B]	100 to 1000 nM
O[C@H](c1cnc2c(cnn2-c2cccc(-c3nnc[nH]3)c2)c1)C1CCCC1 [Compound 9A]	< 100 nM
O[C@@H](c1cnc2c(cnn2-c2cccc(-c3nnc[nH]3)c2)c1)C1CCCC1 [Compound 9B]	< 100 nM
O=C(O)CCc1ccc(-n2ncc3cc([C@H](O)COC4CCC4)cnc32)cc1F [Compound 82B]	≥ 1000 nM
O=C(O)c1ccc(-n2ncc3cc([C@@H](O)COC4CC(F)(F)C4)cnc32)cc1 [Compound 91A]	≥ 1000 nM
O=C(O)c1ccc(-n2ncc3cc([C@H](O)COC4CC(F)(F)C4)cnc32)cc1 [Compound 91B]	≥ 1000 nM
O=C(O)c1ccc(-n2ncc3cc([C@H](O)C4CC(F)(F)C4)cnc32)cn1 [Compound 97A]	≥ 1000 nM

Compound	EC50
O=C(O)c1ccc(-n2ncc3cc([C@@H](O)C4CC(F)(F)C4)cnc32)cn1 [Compound 97B]	< 100 nM
O=C(O)c1ccc(-n2ccc3cc([C@@H](O)[C@@H]4CCCO4)cnc32)cc1 [Compound 98A]	≥ 1000 nM
O=C(O)c1ccc(-n2ccc3cc([C@H](O)[C@@H]4CCCO4)cnc32)cc1 [Compound 98B]	< 100 nM
O=C(O)c1ccc(-n2ccc3cc([C@@H](O)[C@H]4CCCO4)cnc32)cc1 [Compound 100A]	≥ 1000 nM
O=C(O)c1ccc(-n2ccc3cc([C@H](O)[C@H]4CCCO4)cnc32)cc1 [Compound 100B]	< 100 nM
O=C(O)c1ccc(-n2ncc3cc([C@@H](O)COCC4CCC4)cnc32)cc1 [Compound 101A]	< 100 nM
Cc1nn(-c2ccc(C(=O)O)cc2)c2ncc([C@H](O)C3CC(F)(F)C3)cc12 [Compound 102A]	≥ 1000 nM
Cc1nn(-c2ccc(C(=O)O)cc2)c2ncc([C@@H](O)C3CC(F)(F)C3)cc12 [Compound 102B]	100 to 1000 nM
O=C(O)c1ccc(-n2ccc3cc([C@@H](O)COC4CCC4)cnc32)cc1 [Compound 103A]	< 100 nM
O=C(O)c1ccc(-n2ccc3cc([C@H](O)COC4CCC4)cnc32)cc1 [Compound 103B]	100 to 1000 nM
Cc1nn(-c2ccc(C(=O)O)cc2)c2ncc([C@@H](O)COC3CCCC3)cc12 [Compound 104A]	100 to 1000 nM
Cc1nn(-c2ccc(C(=O)O)cc2)c2ncc([C@H](O)COC3CCCC3)cc12 [Compound 104B]	100 to 1000 nM
CC1(C)CC(OC[C@H](O)c2cnc3c(cnn3-c3ccc(C(=O)O)cc3)c2)C1 [Compound 105A]	100 to 1000 nM
CC1(C)CC(OC[C@@H](O)c2cnc3c(cnn3-c3ccc(C(=O)O)cc3)c2)C1 [Compound 105B]	< 100 nM
CS(=O)(=O)c1cccc(-n2ncc3cc([C@@H](O)COC4CCC4)cnc32)c1 [Compound 123A]	100 to 1000 nM
CS(=O)(=O)c1cccc(-n2ncc3cc([C@H](O)COC4CCC4)cnc32)c1 [Compound 123B]	≥ 1000 nM
